# Reference: article PMC3904506 (International journal of biological macromolecules, 2013)
# Counter-ions that a name gives are not always drawn. Like-named read-outs stand apart in the source and are kept apart here.
# How the values were obtained:
# [1] = target: T1, CDA mutant E24Q (Homo sapiens, UniProt P32320, E24Q); assay: Inhibition of deoxycytidine deamination, E24Q mutant
# [2] = target: T2, CDA variant Q27/A70 (Homo sapiens, UniProt P32320, K27Q); assay: Inhibition of deoxycytidine deamination, Q27/A70 variant
# T2 sequence (P32320 whole entry K27Q): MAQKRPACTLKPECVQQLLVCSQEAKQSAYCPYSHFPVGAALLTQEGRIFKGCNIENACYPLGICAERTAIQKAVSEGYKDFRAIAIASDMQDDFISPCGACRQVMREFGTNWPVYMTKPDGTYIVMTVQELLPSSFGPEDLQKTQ
# [3] = target: T3, CDA variant K27/T70 (Homo sapiens, UniProt P32320, A70T); assay: Inhibition of deoxycytidine deamination, K27/T70 variant
# T3 sequence (P32320 whole entry A70T): as the sequence (P32320 whole entry K27Q) above, with Q27K, A70T counted along it
# [4] = target: T1, CDA mutant E24Q; assay: CDA activity assay, substrate kinetics, E24Q mutant; conditions: 37 °C
# [5] = target: T4, CDA variant K27/A70 (Homo sapiens, UniProt P32320); assay: CDA activity assay, substrate kinetics, K27/A70 variant
# [6] = target: T2, CDA variant Q27/A70; assay: CDA activity assay, substrate kinetics, Q27/A70 variant; conditions: 37 °C
# [7] = target: T3, CDA variant K27/T70; assay: CDA activity assay, substrate kinetics, K27/T70 variant; conditions: 37 °C
# [8] = target: T4, CDA variant K27/A70; assay: Inhibition of deoxycytidine deamination, K27/A70 variant; conditions: double-reciprocal plots, substrate deoxycytidine
# [9] = target: T4, CDA variant K27/A70; assay: Oxidative resistance experiments, K27/A70 variant; type: biochemical
# [10] = target: T2, CDA variant Q27/A70; assay: Oxidative resistance experiments, Q27/A70 variant; type: biochemical
# [11] = target: T3, CDA variant K27/T70; assay: Oxidative resistance experiments, K27/T70 variant; type: biochemical
# [12] = target: T1, CDA mutant E24Q; assay: Oxidative resistance experiments, E24Q mutant; type: biochemical
# [13] = Q27/A70, double-reciprocal plots, substrate deoxycytidine
# [14] = K27/T70, double-reciprocal plots, substrate deoxycytidine
# [15] = 100 μM NaOCl, 60 min of incubation, 37 °C
# [16] = read-out: K0.5 (concentration at 50% inhibition of activity), NaOCl
# T1 sequence (P32320 whole entry E24Q): as the sequence (P32320 whole entry K27Q) above, with E24Q, Q27K counted along it
smiles,measurement,setting,value
Nc1ccn([C@@H]2O[C@H](CO)[C@@H](O)[C@H]2O)c(=O)c1 [3-Deaza-cytidine],Ki,[1],2.9 µM
same,Ki,[2],1.8 µM
same,Ki,[3],2.4 µM
"Nc1ccn([C@H]2CC[C@@H](CO)O2)c(=O)n1 [2′,3′-CdR, 2′,3′-dideoxycytidine]",Km,[4],not substrate
same,Km,[5]; 37 °C,not substrate
same,Km,[6],not substrate
same,Km,[7],not substrate
"Nc1ncn([C@@H]2O[C@H](CO)[C@@H](O)[C@@H]2O)c(=O)n1 [Fazarabine, 1-β-D-arabinofuranosyl-5-azacytosine]",increase in catalytic efficiency with respect to the Q27/A70 and K27/T70 variants,[5],3 fold
"Nc1ccn([C@H]2C[C@H](O)[C@@H](CO)O2)c(=O)n1 [CdR, 2′-deoxycytidine]",enthalpy of binding ΔH (van't Hoff plot),[5]; temperature range 10–35 °C,3.57 kcal/mol
same,enthalpy of binding ΔH (van't Hoff plot),[5]; temperature range 35–80 °C,-8.88 kcal/mol
O=C1NC(O)CCN1[C@H]1C[C@H](O)[C@@H](CO)O1 (stereo partly drawn) [Tetrahydro-2′-deoxyuridine],Ki,[8],0.04 µM
same,Ki,[2]; [13],0.26 µM
same,Ki,[3]; [14],0.26 µM
Nc1ncc([C@@H]2O[C@H](CO)[C@@H](O)[C@H]2O)c(=O)[nH]1 [Pseudoisocytidine-HCl],Ki,[8],28 µM
same,Ki,[2]; [13],46 µM
same,Ki,[3]; [14],60 µM
"[Na+].[O-]Cl [NaOCl, sodium hypochlorite]",residual activity,[9]; [15],32%
same,IC50,[9]; [16],60 µM
same,residual activity,[10]; [15],49%
same,IC50,[10]; [16],100 µM
same,residual activity,[11]; [15],27.5%
same,residual activity,"[12]; NaOCl (100 μM, Fig. 6A), 60 min of incubation",97%
same,IC50,[12]; [16],1000 µM
"OO [H2O2, hydrogen peroxide]",IC50,"[9]; read-out: K0.5, H2O2",23500 µM
same,IC50,"[10]; read-out: K0.5, H2O2",15000 µM
same,IC50,"[11]; read-out: K0.5, H2O2",11500 µM
same,IC50,"[12]; read-out: K0.5, H2O2",8000 µM
